Data from patent US20040152745A1, “Dipeptidyl peptidase IV inhibitors and methods of making and using dipeptidyl peptidase IV inhibitors” (Guilford Pharmaceuticals, Inc., priority 1999, published 2004).

Tested on: organotypic spinal motor neurons
Experiment: organotypic spinal motor neuron / THA neuroprotection assay
Type: cell-based, Sprague-Dawley rat
Settings: exposure of neurons with THA alone
Experimental: Each experiment consists of two 6-well plates with 5 slices from 4 different animals per well. Media changes are performed every 3 to 4 days. Cultures are treated with THA [L(−)-threo-3-hydroxyaspartic acid; Tocris Cookson Inc., Ballwin, Mo.] at 200 μM+compound (10 μM) after one week in culture. The control is an untreated sample with 0.1% DMSO as vehicle. The THA control is a THA treated sample with 0.1% DSMO as vehicle. Two wells are used per condition. One media change with new THA and compounds is performed. The experiment is stopped 6 to 8 days following drug treatment (13-15 total days in vitro, DIV) as dictated by visual assessment of lesion, by fixation with 4% paraformaldehyde/0.1 M phosphate buffer for 30 minutes. Slices are permeabilized with 100% cold methanol for 10 minutes. Slices are transferred to staining wells. […]
Quantification of surviving neurons is performed on a Ziess Axiovert microscope. Neuronal survival is determined by observing an intact neuronal cell body with processes located ventrally of the central canal in each hemisphere. […] Each hemisphere is counted individually. The statistics can be performed with StatView software on a minimum of three different experiments per condition and significance should be determined as compared to THA control. The percent of protection can be determined from the average number of living neurons by the following equation: […]

Q: How did the “death of the neurons” value turn out when `N[C@H](C(=O)O)[C@H](O)C(=O)O` [THA, L(−)-threo-3-hydroxyaspartic acid] was run?
A: 55-60%
